21 compounds from patent publication US12304899B2, “Factor XI activation inhibitors” (Merck Sharp & Dohme LLC, priority 2019, dated 2025) can be followed below.

Structures are written as SMILES.

T1 sequence (P03951 19-625): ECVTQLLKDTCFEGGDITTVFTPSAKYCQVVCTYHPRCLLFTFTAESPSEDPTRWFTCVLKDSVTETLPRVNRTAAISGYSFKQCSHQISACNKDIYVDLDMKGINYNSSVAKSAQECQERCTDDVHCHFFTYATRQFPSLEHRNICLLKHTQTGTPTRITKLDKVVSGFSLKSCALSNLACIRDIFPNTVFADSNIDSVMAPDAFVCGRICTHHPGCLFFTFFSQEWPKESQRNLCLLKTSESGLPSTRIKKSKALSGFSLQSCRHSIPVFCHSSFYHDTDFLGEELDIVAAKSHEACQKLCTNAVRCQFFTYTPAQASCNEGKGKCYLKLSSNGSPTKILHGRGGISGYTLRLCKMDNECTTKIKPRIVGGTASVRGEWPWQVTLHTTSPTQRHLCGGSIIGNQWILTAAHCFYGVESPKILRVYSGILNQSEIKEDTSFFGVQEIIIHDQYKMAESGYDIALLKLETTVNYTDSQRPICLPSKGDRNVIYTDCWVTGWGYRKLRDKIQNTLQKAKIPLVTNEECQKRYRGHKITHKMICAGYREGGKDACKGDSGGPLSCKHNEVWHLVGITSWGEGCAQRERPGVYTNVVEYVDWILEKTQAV

The assay addresses T1, Human coagulation factor (F)XI (Homo sapiens, UniProt P03951).
T1 construct: purchased Haematologic Technologies Inc. (FXI); Enzyme Research Laboratories (FXIIa) HCXI-150 (FXI); HFXIIa (FXIIa)
The experiment in a line: Inhibition of FXIIa mediated activation of FXI (activation of human Factor XI to XIa by human Factor α-XIIa). Type of assay: biochemical. The settings on record: human FXI pre-incubated with compound 30 min at 22° C., activation by human FXIIa 60 min, z-GPR-AFC substrate fluorescence, 4 parameter logistic fit; read-out: Inhibition of FXIIa meditated activation of FXI. As to the method: Inhibition of FXIIa Mediated Activation of FXI
Activation of Human Factor XI to XIa by Human Factor α-XIIa
The assay was performed in 50 mM HEPES, 150 mM NaCl, 5 mM CaCl2, 0.1% PEG-8000, pH 7.4 buffer in black, flat-bottom, polystyrene microplates (Corning, Cat #3573). Serial dilutions (10-point, 3.333-fold) of the test compounds delivered as 10 mM DMSO stocks were prepared in the Labcyte Echo-qualified PP 384 well microplates (Labcyte, Cat #P-05525). Human coagulation factor (F)XI (Haematologic Technologies Inc., Cat #HCXI-150, concentration 46 nM, 19.5 uL) was pre-incubated with 0.5 uL of the test compounds for 30 min at 22° C. The activation was initiated by addition of 10 uL of human coagulation factor (F)XIIa (Enzyme Research Laboratories, Cat #HFXIIa, concentration 30 nM) and the reaction proceeded for 60 min at 22° C., after which it was quenched by addition of a selective inhibitor of FXIIa (Compound 54 in International Patent Publication WO2018093695) concentration 600 uM in DMSO, 1 uL). 10 min after the quench, 29 uL of z-GPR-AFC substrate (Sigma, Cat #C0980-10 MG, concentration 200 uM) was added into each well and the detection reaction proceeded for 60 min at 22° C. Fluorescence at 405/510 nm was measured in end-point mode using an Envision plate-reader (Perkin Elmer). IDBS Activity Base XE (ABase) analysis using 4 parameter logistic fit was performed to determine Minimum, Maximum, EC50, and Slope Factor for each compound.
As to `Cn1ncc2cc(COc3ccc4nc(C(=O)N5CCC(n6cccn6)CC5)cc(C(=O)N5CCCCC5)c4c3)ccc21` [Example 17, (4-(1H-pyrazol-1-yl)piperidin-1-yl)(6-((1-methyl-1H-indazol-5-yl)methoxy)-4-(piperidine-1-carbonyl)quinolin-2-yl) methanone], the EC50 is 50.8 nM.
Under `O=C1OCc2ccc(COc3ccc4nc(C(=O)N5CCC(n6cccn6)CC5)cc(C(=O)N5CCCCC5)c4c3)cc21` [Example 20, 6-(((2-(4-(1H-pyrazol-1-yl)-piperidine-1-carbonyl)-4-(piperidine-1-carbonyl)-quinolin-6-yl)oxy)methyl)-isobenzofuran-1(3H)-one] stands 35.8 nM; under `O=C(c1cc(C(=O)N2CCCCC2)c2cc(OCc3ccc4nnsc4c3)ccc2n1)N1CCC(n2cccn2)CC1` [Example 6, (4-(1H-pyrazol-1-yl)piperidin-1-yl)(6-(benzo[d][1,2,3]thiadiazol-6-ylmethoxy)-4-(piperidine-1-carbonyl)quinolin-2-yl)methanone], 49.2 nM; under `N#Cc1ccc(COc2ccc3nc(C(=O)N4CCC(n5cccn5)CC4)cc(C(=O)N4CCCCC4)c3c2)cc1` [Example 9, 4-(((2-(4-(1H-pyrazol-1-yl)-piperidine-1-carbonyl)-4-(piperidine-1-carbonyl)-quinolin-6-yl)oxy)methyl) benzonitrile], 39.6 nM.
Under `O=C(c1cc(C(=O)N2CCCCC2)c2cc(OCc3cc4ccccn4n3)ccc2n1)N1CCC(n2cccn2)CC1` [Example 22, (4-(1H-pyrazol-1-yl)piperidin-1-yl)(4-(piperidine-1-carbon-yl)-6-(pyrazolo[1,5-a]pyridin-2-ylmethoxy)quinolin-2-yl) methanone] stands 44.6 nM.
Consider `Cc1c(COc2ccc3nc(C(=O)N4CCC(n5cccn5)CC4)cc(C(=O)N4CCCCC4)c3c2)ccc2c1COC2=O` [Example 18, 5-(((2-(4-(1H-pyrazol-1-yl)-piperidine-1-carbonyl)-4-(piperidine-1-carbonyl)-quinolin-6-yl)oxy)methyl)-4-methylisobenzofuran-1(3H)-one], for which the EC50 was 21.9 nM.
In the case of `Cc1c(COc2ccc3nc(C(=O)N4CCC(C)(O)C4)cc(C(=O)N4CCCCC4)c3c2)ccc2c1COC2=O` (single isomer, unassigned) [Example 5a, 5-(((2-(3-hydroxy-3-methylpyrrolidine-1-carbonyl)-4-(piperidine-1-carbonyl)quinolin-6-yl)oxy)methyl)-4-methylisobenzofuran-1(3H)-one], the EC50 turned out to be 31.8 nM.
In the case of `COc1cccc(COc2ccc3nc(C(=O)N4CCC(C#N)(c5ccccc5)CC4)cc(C(=O)N4CCCCC4)c3c2)c1` [Example 41, 1-(6-((3-methoxybenzyl)oxy)-4-(piperidine-1-carbonyl)quin-oline-2-carbonyl)-4-phenyl-piperidine-4-carbonitrile], the EC50 was 30.5 nM.
Under `CN(C(=O)c1cc(C(=O)N2CCC(n3cccn3)CC2)nc2ccc(OCc3nc4ccccc4s3)cc12)C1CCC1` [Example 55, 2-(4-(1H-pyrazol-1-yl)piperi-dine-1-carbonyl)-6-(benzo[d]-thiazol-2-ylmethoxy)-N-cyclo-butyl-N-methylquinoline-4-carboxamide] stands 366 nM; under `N#CC1(n2cccn2)CCN(C(=O)c2cc(C(=O)N3CCCCC3)c3cc(OCc4ncc(C(F)(F)F)cc4Cl)ccc3n2)CC1` [Example 2, 1-(6-((3-chloro-5-(trifluoro-methyl)pyridin-2-yl)meth-oxy)-4-(piperidine-1-carbon-yl)quinoline-2-carbonyl)-4-(1H-pyrazol-1-yl)piperidine-4-carbonitrile], 32.2 nM.
Consider `COc1ccc(COc2ccc3nc(C(=O)N4CCC(C#N)(c5ccccc5)CC4)cc(C(=O)N4CCCCC4)c3c2)c(Cl)c1` [Example 40, 1-(6-((2-chloro-4-methoxy-benzyl)oxy)-4-(piperidine-1-carbonyl)quinoline-2-carbon-yl)-4-phenylpiperidine-4-carbonitrile], for which the EC50 was found to be 49.9 nM.
Under `O=C(c1cc(C(=O)N2CCCCC2)c2cc(OCc3ccc4nonc4c3)ccc2n1)N1CCC(n2cccn2)CC1` [Example 14, (4-(1H-pyrazol-1-yl)piperidin-1-yl)(6-(benzo[c][1,2,5]-oxadiazol-5-ylmethoxy)-4-(piperidine-1-carbonyl)-quinolin-2-yl)methanone] stands 14.7 nM; under `O=C(c1cc(C(=O)N2CCCCC2)c2cc(OCc3nc4ccccc4s3)ccc2n1)N1CCC(n2cccn2)CC1` [Example 26, (4-(1H-pyrazol-1-yl)piperidin-1-yl)(6-(benzo[d]thiazol-2-ylmethoxy)-4-(piperidine-1-carbonyl)quinolin-2-yl) methanone], 28.9 nM; under `O=C(c1cc(C(=O)N2CCCCC2)c2cc(OCc3nc4ccccc4s3)ccc2n1)N1CC[C@H]2OCCC[C@@H]2C1` [Example 70], 40.2 nM.
On to `N#Cc1ccc(COc2ccc3nc(C(=O)N4CCC(C#N)(c5ccccc5)CC4)cc(C(=O)N4CCCCC4)c3c2)cc1` [Example 31, 1-(6-((4-cyanobenzyl)oxy)-4-(piperidine-1-carbonyl)quin-oline-2-carbonyl)-4-phenyl-piperidine-4-carbonitrile], for which the EC50 is 24.9 nM.
Take `O=C(c1cc(C(=O)N2CCCCC2)c2cc(OCc3cn4ccccc4n3)ccc2n1)N1CCC(n2cccn2)CC1` [Example 25, (4-(1H-pyrazol-1-yl)piperidin-1-yl)(6-(imidazo[1,2-a]-pyridin-2-ylmethoxy)-4-(piperidine-1-carbonyl)quin-olin-2-yl)methanone]: the EC50 is 34.2 nM.
Under `O=C1OCc2cc(COc3ccc4nc(C(=O)N5CCC(n6cccn6)CC5)cc(C(=O)N5CCCCC5)c4c3)ccc21` [Example 19, 5-(((2-(4-(1H-pyrazol-1-yl)-piperidine-1-carbonyl)-4-(piperidine-1-carbonyl)-quinolin-6-yl)oxy)methyl)-isobenzofuran-1(3H)-one] stands 31.6 nM; under `C[C@]1(O)CCN(C(=O)c2cc(C(=O)N3CCCCC3)c3cc(OCc4nc5ccccc5s4)ccc3n2)C1` [Example 61, (S)(6-(benzo[d]thiazol-2-ylmethoxy)-2-(3-hydroxy-3-methylpyrrolidine-1-carbonyl)quinolin-4-yl)-(piperidin-1-yl)methanone], 131 nM.
To `N#CC1(c2ccccc2)CCN(C(=O)c2cc(C(=O)N3CCCCC3)c3cc(OCc4cccc(OC(F)F)c4)ccc3n2)CC1` [Example 33, 1-(6-((3-(difluoro-l3-meth-oxy)phenyl)methoxy)-4-(piperidine-1-carbonyl)quin-oline-2-carbonyl)-4-phenyl-piperidine-4-carbonitrile] belongs 35.9 nM.
In the case of `N#CC1(c2ccccc2)CCN(C(=O)c2cc(C(=O)N3CCCCC3)c3cc(OCc4ccc(OC(F)F)cc4)ccc3n2)CC1` [Example 36, 1-(6-((4-(difluoro-l3-meth-oxy)phenyl)methoxy)-4-(piperidine-1-carbonyl)quin-oline-2-carbonyl)-4-phenyl-piperidine-4-carbonitrile], the EC50 is 29.1 nM.
To `N#CC1(c2ccccc2)CCN(C(=O)c2cc(C(=O)N3CCCCC3)c3cc(OCCCn4cccc4)ccc3n2)CC1` [Example 46, 1-(6-(3-(1H-pyrrol-1-yl)-propoxy)-4-(piperidine-1-car-bonyl)quinoline-2-carbonyl)-4-phenylpiperidine-4-carbonitrile] belongs 33.7 nM.
